The results in this text go back to ChEMBL document CHEMBL1201862, “PubChem BioAssay data set” (2004).

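The compound was tested at five concentrations on cells cultured in 96-well plates, with a 48-hour exposure period. Abbreviation: GI50, concentration required for 50% inhibition of growth.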 Calls of active or inactive are those of the source. No stated cut-off is given here; in the data, active = GI50 up to about 1.1 µM and inactive = higher.

Experiment in all cases: DTP human tumour cell line panel, 48 h
Experiment [1] has as its system U-251.
The test system of experiment [2] is SNB-75.
Experiment [3] relates to SR.
Experiment [4] deals with NCI-H522.
Experiment [5] deals with K562.
For experiment [6], the system named is SF-539.
Experiment [7] has as its system NCI/ADR-RES.
For experiment [8], the system named is KM12.
For experiment [9], the system named is OVCAR-8.
The subject of experiment [10] is T47D.
The test system of experiment [11] is A498.
Experiment [12] concerns MDA-MB-435.
For experiment [13], the system named is COLO 205.
The subject of experiment [14] is Hs-578T.
Experiment [15] concerns A549.
In experiment [16] the test system is HOP-92.
The subject of experiment [17] is OVCAR-5.
For experiment [18], the system named is HCT-15.
For experiment [19], the system named is HL-60.
Experiment [20] concerns HCC 2998.

The GI50 is the concentration at which growth is held to half of that of the control. On to `O=C(O)c1cc(CCc2cc(O)ccc2O)ccc1O`, for which the GI50 is > 100 µM (inactive) in [1]; > 100 µM (inactive) in experiment [2]; > 100 µM (inactive) in [3]; > 100 µM (inactive) in experiment [4]; 37.2 µM (inactive) in [5]; > 100 µM (inactive) in [6]. Further, the GI50 in experiment [7], in experiment [8], in experiment [9], in experiment [10], in [11] and in [12] was > 100 µM (inactive) each time. Further, the GI50 in [13] was > 100 µM (inactive); in [14] it was > 100 µM (inactive); in [15], > 100 µM (inactive); in [16], > 100 µM (inactive); in [17], > 100 µM (inactive); in [18], greater than 100 µM. For the same compound, the GI50 in experiment [19] was 30.6 µM (inactive).
As to `Cc1ncc(COP(=O)(O)O)c(C)c1O`, the GI50 in [1], in [3], in experiment [4], in [5], in experiment [7] and in experiment [8] was > 100 µM (inactive) each time. Moreover, the GI50 in [9], in experiment [10], in [11], in [12], in experiment [14] and in experiment [15] was > 100 µM (inactive) throughout. Further, the GI50 in experiment [16] was > 100 µM (inactive); in [17], > 100 µM (inactive); in [18], greater than 100 µM; in [19] it was > 100 µM (inactive).
For `CC#CCOC(=O)c1ccccc1OC(C)=O`, the GI50 in experiment [1], in [2], in [3], in experiment [4], in [5] and in [6] was > 100 µM (inactive) in each case. For the same compound, the GI50 in experiment [7], in experiment [20], in experiment [8], in [9], in [10] and in [11] was > 100 µM (inactive) each time. Besides, the GI50 was > 100 µM (inactive) in experiment [12]; > 100 µM (inactive) in [13]; > 100 µM (inactive) in experiment [14]; > 100 µM (inactive) in [16]; > 100 µM (inactive) in [17]; greater than 100 µM in experiment [18]. Further, the GI50 in [19] is 72.1 µM (inactive).
`CCOC(=O)Cn1nc2ccc(Nc3c(C)[n+]([O-])c4cc(F)c(OCC)cc4[n+]3[O-])cc2n1`: the GI50 was 37.5 µM (inactive) in experiment [1]; > 100 µM (inactive) in experiment [3]; > 100 µM (inactive) in [4]; > 100 µM (inactive) in experiment [5]; 83 µM (inactive) in experiment [6]; > 100 µM (inactive) in [7]. Moreover, the GI50 in experiment [8] was > 100 µM (inactive); in [9] it was > 100 µM (inactive); in experiment [10], > 100 µM (inactive); in experiment [11], > 100 µM (inactive); in [12], > 100 µM (inactive); in experiment [14], 40.7 µM (inactive). Also, the GI50 in experiment [16] was 18.2 µM (inactive); in [17], > 100 µM (inactive); in experiment [18], greater than 100 µM; in experiment [19] it was > 100 µM (inactive).
In the case of `N#Cc1nc(CSCc2ccccc2)oc1N`, the GI50 in experiment [1] was > 100 µM (inactive); in experiment [3], > 100 µM (inactive); in experiment [4] it was 42.6 µM (inactive); in experiment [6], > 100 µM (inactive); in experiment [7] it was > 100 µM (inactive); in [20], > 100 µM (inactive). Besides, the GI50 in experiment [8], in [9], in experiment [10], in [11], in [12] and in experiment [13] was > 100 µM (inactive) throughout. The GI50 in experiment [14] is > 100 µM (inactive); in experiment [15] it was > 100 µM (inactive); in [16], > 100 µM (inactive); in experiment [17], > 100 µM (inactive); in experiment [18], greater than 100 µM.
On to `CC1OC(OC2C(O)COC(OC3C(C)OC(OC4C(OC(=O)[C@]56CCC(C)(C)C[C@@H]5C5=CCC7[C@@]8(C)C[C@H](O)[C@H](OC9OC(CO)C(O)C(O)C9O)[C@@](C)(CO)[C@@H]8CC[C@@]7(C)[C@]5(C)CC6)OCC(O)C4O)C(O)C3O)C2O)C(O)C(O)C1O` (stereo partly specified), for which the GI50 in [1] was 23.9 µM (inactive); in experiment [2], 20 µM (inactive); in experiment [3], 21 µM (inactive); in experiment [4], 46.6 µM (inactive); in experiment [5], 47.9 µM (inactive); in [6] it was 22.2 µM (inactive). Moreover, the GI50 is 21.6 µM (inactive) in experiment [7]; 18.5 µM (inactive) in [20]; 35.5 µM (inactive) in [8]; 18.8 µM (inactive) in [9]; 22 µM (inactive) in experiment [10]; 19.5 µM (inactive) in [11]. Besides, the GI50 in experiment [12] is 23.4 µM (inactive); in experiment [13], 14.9 µM (inactive); in experiment [14], 32 µM (inactive); in experiment [15], 20.8 µM (inactive); in experiment [16], 23.7 µM (inactive); in [17] it was 17.1 µM (inactive). The compound also had a GI50 in experiment [18] of 20.9 µM.
Take `CC(=C/C=C/C=C(C)\C=C\C=C(\C)C(=O)O)/C=C/C=C(/C)C(=O)O`: the GI50 in [1], in [2], in experiment [3], in experiment [4], in [5] and in [6] was > 100 µM (inactive) in each case. Moreover, the GI50 in [7], in [8], in [9], in experiment [10], in experiment [11] and in [12] was > 100 µM (inactive) throughout. Moreover, the GI50 was > 100 µM (inactive) in experiment [13]; > 100 µM (inactive) in experiment [14]; > 100 µM (inactive) in experiment [15]; > 100 µM (inactive) in experiment [16]; > 100 µM (inactive) in experiment [17]; greater than 100 µM in experiment [18]. Besides, the GI50 in [19] is 25.5 µM (inactive).
Consider `[N-]=[N+]=Nc1cc(=O)n2c3c(cccc13)CCC2`, for which the GI50 in [1], in experiment [2], in experiment [3], in experiment [4], in experiment [5] and in [6] was > 100 µM (inactive) throughout. Also, the GI50 in experiment [7], in experiment [20], in experiment [8], in [9], in experiment [10] and in experiment [11] was > 100 µM (inactive) in each case. The GI50 in experiment [12] is > 100 µM (inactive); in experiment [13] it was > 100 µM (inactive); in experiment [14], > 100 µM (inactive); in experiment [15] it was > 100 µM (inactive); in [16] it was > 100 µM (inactive); in [18] it was greater than 100 µM. The GI50 in [19] was > 100 µM (inactive).
For `O=C1N(CN2CCOCC2)CN(CN2CCOCC2)C(=O)N1Cc1ccc(CN2C(=O)N(CN3CCOCC3)CN(CN3CCOCC3)C2=O)cc1`, the GI50 in experiment [1] was 44.9 µM (inactive); in [2] it was 89.7 µM (inactive); in [3] it was 46.9 µM (inactive); in experiment [4], > 100 µM (inactive); in experiment [6], 44.8 µM (inactive); in experiment [7], 49.9 µM (inactive). The GI50 in experiment [20] is > 100 µM (inactive); in experiment [8], 48.1 µM (inactive); in experiment [9], 42 µM (inactive); in [10], 53 µM (inactive); in experiment [11], > 100 µM (inactive); in experiment [12], 26.4 µM (inactive). For the same compound, the GI50 in experiment [13] was 43 µM (inactive); in experiment [14], 22 µM (inactive); in experiment [15], 40.2 µM (inactive); in [16], 52 µM (inactive); in experiment [17], > 100 µM (inactive); in experiment [18], 31.2 µM. In addition, in experiment [19], the GI50 is 60.1 µM (inactive).
Regarding `Nc1nc(Cl)cc(Nc2ccc3c(c2)CCC3)n1`, the GI50 is > 100 µM (inactive) in [1]; 17.4 µM (inactive) in experiment [3]; 45.4 µM (inactive) in experiment [4]; 32.7 µM (inactive) in experiment [5]; > 100 µM (inactive) in experiment [6]; 28.6 µM (inactive) in experiment [7]. The GI50 in [20] was 65 µM (inactive); in experiment [8] it was 36.1 µM (inactive); in [9], 80.9 µM (inactive); in [10], > 100 µM (inactive); in [11], > 100 µM (inactive); in [12], > 100 µM (inactive). The GI50 in experiment [13] was 44.9 µM (inactive); in experiment [14] it was > 100 µM (inactive); in experiment [15] it was > 100 µM (inactive); in experiment [16], > 100 µM (inactive); in experiment [17] it was > 100 µM (inactive); in experiment [18], 35.9 µM. In experiment [19], the GI50 is 37.2 µM (inactive).
In the case of `C[C@@](O)(/C=C/[C@H]1CC=CC(=O)O1)[C@@H](C[C@@H](O)\C=C/C=C\C=C\CO)OP(=O)(O)O` [FOSTRIECIN SODIUM], the GI50 was 17.1 µM (inactive) in experiment [1]; 3.99 µM (inactive) in experiment [3]; 17.3 µM (inactive) in [4]; 1.6 µM (inactive) in experiment [5]; 7.23 µM (inactive) in [6]; 12.8 µM (inactive) in experiment [7]. Moreover, the GI50 in experiment [20] is 4.28 µM (inactive); in experiment [8], 6.08 µM (inactive); in experiment [9], 9.48 µM (inactive); in experiment [10], 48.1 µM (inactive); in [11], 23.9 µM (inactive); in [12], 1.28 µM (inactive). Further, the GI50 was 3.08 µM (inactive) in [13]; 5.51 µM (inactive) in [14]; 9.66 µM (inactive) in experiment [15]; 2.27 µM (inactive) in experiment [16]; 6.31 µM (inactive) in experiment [17]; 5.74 µM in experiment [18]. The GI50 in experiment [19] is 1.1 µM (active).
